Two compounds from patent US10280170B2, “Substituted 4,5,6,7-tetrahydro-pyrazolo[1,5-a]pyrazine derivatives and 5,6,7,8-tetrahydro-4H-pyrazolo[1,5-a][1,4]diazepine derivatives as Ros1 inhibitors” (Janssen Pharmaceutica NV, priority 2014, dated 2019) can be followed below.

The test system of assay [1] is HCC78 non-small cell lung cancer cells. Briefly: HCC78 cell proliferation assay. The class given is cell-based. The note with it: Homo sapiens, HCC78, 96 h, read-out: HCC-78 PROL pEC50 (converted). The method, boiled down: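 HCC78 NSCLC cells (~1000/well) in RPMI-1640 with 10% FBS were treated 24 h after seeding and exposed to compound for 4 days at 37 °C. Viability was read by MTT, with absorbance at 538 nm after DMSO/glycine solubilization.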

Assay [2] concerns Ba/F3 tumors containing L2026M mutant Ros1. Briefly: Efficacy study in mice bearing Ba/F3-Ros1 tumors, L2026M mutant Ros1. The class given is in vivo, NMRI nude mice. The conditions noted are these: oral gavage, 10 days. How it is done:
(§1) Efficacy Studies in Mice Bearing Ba/F3-Ros1 Tumors
(§2) Approximately 2×10^6 Ba/F3 cells containing either wild-type, L2026M or G2032R mutant Ros1 were inoculated into the inguinal region of NMRI nude mice. When the resulting tumors reached a size of 250 to 350 mm^3, mice were randomly assigned to the different treatment groups (8 to 12 mice per group). Compounds formulated in 20% cyclodextrin were administered to the mice by oral gavage at various doses for 10-days once (QD) or twice (BID) a day. Tumor sizes were determined by caliper measurement on day 1 prior to treatment and then twice weekly for the duration of the study using the commonly following formula: tumor volume (mm^3)=(a×b^2/2); where ‘a’ represents the length, and ‘b’ the width of the tumor. Treatment/control (T/C) ratios were calculated at the end of the study based on the change in final relative tumor volumes.

The next assay deals with T1, Ros1 enzyme (Homo sapiens, UniProt P08922).
T1 construct: 0.5 μg/ml Ros1 enzyme
Briefly: Ros1 enzymatic assay. The class given is biochemical. The note with it: Ros1 enzymatic assay; read-out: ROS1 pIC50 (converted). The method, boiled down: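 Radiometric proximity read-out: 33P incorporated into IRS-Tide captured on streptavidin imaging beads and imaged on LEADseeker. Phosphorylation ran 120 min at RT with 20 μM ATP (substrate-mix level) in Tris pH7.5/MgCl2/EGTA/Tween buffer; EDTA stop.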

Assay [3] has as its target Ba/F3 cells containing Ros1 with G2032R mutation (Homo sapiens, UniProt P08922, G2032R, cells depend on it, form not given). Briefly: Ba/F3-Ros1 cell proliferation assay, G2032R crizotinib-resistance mutant. The class given is cell-based, murine. The note with it: without IL-3. The gist of the method: (§3)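 Ba/F3 cells expressing wild-type, L2026M or G2032R Ros1 (20000 per well) were incubated with DMSO-solubilized compounds in phenol red-free RPMI-1640 with 10% FBS and 2 mM L-glutamine at 37 °C, 5% CO2 for 24 hours. Viability was then read by Alamar Blue fluorescence (ex 540/em 590 nm) after 4 h.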

Assay [4] deals with Ba/F3 tumors containing G2032R mutant Ros1. Briefly: Efficacy study in mice bearing Ba/F3-Ros1 tumors, G2032R mutant Ros1. The class given is in vivo, NMRI nude mice. The conditions noted are these: oral gavage, 10 days. How it is done: as §1, §2
The target in assay [5] is T2, Ba/F3 cells containing Ros1 wild-type protein (Homo sapiens, UniProt P08922, cells depend on it, form not given).
T2 construct: The background only speaks of 'a number of different unrelated proteins' and names SLC34A2-ROS1 for HCC78 cells
Briefly: Ba/F3-Ros1 cell proliferation assay, wild-type Ros1. Format: cell-based, murine. The note with it: without IL-3. The method, boiled down:
as §3

Assay [6] deals with Ba/F3 cells containing Ros1 with a mutation at the gatekeeper residue (L2026M) (Homo sapiens, UniProt P08922, L2026M, cells depend on it, form not given). Briefly: Ba/F3-Ros1 cell proliferation assay, L2026M gatekeeper mutant. Format: cell-based, murine. The conditions noted are these: without IL-3. The method, boiled down: as §3
Assay [7] relates to Ba/F3 tumors containing wild-type Ros1. Briefly: Efficacy study in mice bearing Ba/F3-Ros1 tumors, wild-type Ros1. The note with it: oral gavage, 10 days. Format: in vivo, NMRI nude mice. How it is done:
as §1, §2

Values joined by “and” are separate entries in the source; they are usually repeats but may differ in a detail not shown here. Equal values may be shown once.

T2 sequence (P08922 whole entry, stated change not applied): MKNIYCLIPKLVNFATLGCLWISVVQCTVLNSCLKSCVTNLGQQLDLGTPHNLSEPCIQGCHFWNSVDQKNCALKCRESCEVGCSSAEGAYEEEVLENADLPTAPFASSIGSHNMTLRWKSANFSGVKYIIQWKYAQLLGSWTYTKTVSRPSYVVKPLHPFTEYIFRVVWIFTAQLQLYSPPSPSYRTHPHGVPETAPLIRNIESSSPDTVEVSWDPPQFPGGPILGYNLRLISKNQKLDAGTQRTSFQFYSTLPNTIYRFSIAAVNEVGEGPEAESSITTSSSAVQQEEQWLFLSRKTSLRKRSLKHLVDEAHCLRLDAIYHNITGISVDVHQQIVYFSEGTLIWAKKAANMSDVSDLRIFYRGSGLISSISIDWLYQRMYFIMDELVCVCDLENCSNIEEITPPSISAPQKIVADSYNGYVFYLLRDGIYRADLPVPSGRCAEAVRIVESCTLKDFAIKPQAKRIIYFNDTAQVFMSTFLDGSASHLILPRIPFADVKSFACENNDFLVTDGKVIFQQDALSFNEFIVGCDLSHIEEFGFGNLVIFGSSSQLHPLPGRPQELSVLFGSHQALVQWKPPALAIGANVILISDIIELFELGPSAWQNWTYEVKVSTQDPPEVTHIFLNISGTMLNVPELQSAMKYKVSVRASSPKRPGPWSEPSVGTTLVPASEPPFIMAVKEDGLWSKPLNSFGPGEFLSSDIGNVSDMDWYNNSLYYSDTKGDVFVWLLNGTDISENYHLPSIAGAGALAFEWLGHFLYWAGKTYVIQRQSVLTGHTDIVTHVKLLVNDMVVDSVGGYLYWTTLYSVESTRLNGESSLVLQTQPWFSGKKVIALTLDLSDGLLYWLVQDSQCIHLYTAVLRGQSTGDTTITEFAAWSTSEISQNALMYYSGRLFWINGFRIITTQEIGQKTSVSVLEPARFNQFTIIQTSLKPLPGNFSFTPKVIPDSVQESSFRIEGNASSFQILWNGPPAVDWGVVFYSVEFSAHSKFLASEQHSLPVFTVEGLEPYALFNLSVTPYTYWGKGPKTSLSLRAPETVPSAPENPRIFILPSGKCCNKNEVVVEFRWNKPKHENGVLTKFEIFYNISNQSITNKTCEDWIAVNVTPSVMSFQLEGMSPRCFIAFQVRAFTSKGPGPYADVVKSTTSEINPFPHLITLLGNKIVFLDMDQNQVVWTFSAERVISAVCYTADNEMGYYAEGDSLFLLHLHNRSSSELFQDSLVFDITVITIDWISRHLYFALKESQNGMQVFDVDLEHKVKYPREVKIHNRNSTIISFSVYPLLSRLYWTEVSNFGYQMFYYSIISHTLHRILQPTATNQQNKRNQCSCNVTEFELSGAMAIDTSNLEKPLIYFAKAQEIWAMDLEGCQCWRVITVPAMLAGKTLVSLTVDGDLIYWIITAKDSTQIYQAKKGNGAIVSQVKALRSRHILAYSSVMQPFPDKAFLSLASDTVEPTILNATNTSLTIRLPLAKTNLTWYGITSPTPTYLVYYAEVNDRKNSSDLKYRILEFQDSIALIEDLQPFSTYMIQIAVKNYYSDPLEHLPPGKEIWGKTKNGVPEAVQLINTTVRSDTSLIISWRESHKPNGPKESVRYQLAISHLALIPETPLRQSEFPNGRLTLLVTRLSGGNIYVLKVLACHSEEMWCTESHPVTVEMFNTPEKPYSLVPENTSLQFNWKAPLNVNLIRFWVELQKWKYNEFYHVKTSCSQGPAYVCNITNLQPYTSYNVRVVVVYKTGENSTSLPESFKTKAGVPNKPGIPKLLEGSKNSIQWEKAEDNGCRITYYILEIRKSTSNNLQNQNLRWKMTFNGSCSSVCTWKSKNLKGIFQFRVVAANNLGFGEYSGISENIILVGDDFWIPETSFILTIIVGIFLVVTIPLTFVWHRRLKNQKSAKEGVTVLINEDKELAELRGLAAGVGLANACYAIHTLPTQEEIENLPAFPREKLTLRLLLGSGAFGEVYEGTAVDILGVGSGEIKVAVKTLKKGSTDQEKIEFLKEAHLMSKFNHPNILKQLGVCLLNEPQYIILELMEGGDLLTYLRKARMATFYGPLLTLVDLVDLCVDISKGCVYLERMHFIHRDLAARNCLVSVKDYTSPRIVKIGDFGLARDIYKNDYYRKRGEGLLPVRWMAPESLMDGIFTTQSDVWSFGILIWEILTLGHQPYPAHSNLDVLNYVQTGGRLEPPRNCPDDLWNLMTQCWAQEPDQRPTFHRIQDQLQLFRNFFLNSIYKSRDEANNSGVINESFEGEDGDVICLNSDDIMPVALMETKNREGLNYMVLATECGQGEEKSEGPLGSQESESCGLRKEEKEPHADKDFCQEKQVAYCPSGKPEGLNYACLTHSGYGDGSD
Ba/F3 cells containing Ros1 with a mutation at the gatekeeper residue (L2026M), sequence (P08922 whole entry L2026M, form open): as the sequence (P08922 whole entry, stated change not applied) above, with L2026M counted along it
T1 sequence (P08922 28-2347): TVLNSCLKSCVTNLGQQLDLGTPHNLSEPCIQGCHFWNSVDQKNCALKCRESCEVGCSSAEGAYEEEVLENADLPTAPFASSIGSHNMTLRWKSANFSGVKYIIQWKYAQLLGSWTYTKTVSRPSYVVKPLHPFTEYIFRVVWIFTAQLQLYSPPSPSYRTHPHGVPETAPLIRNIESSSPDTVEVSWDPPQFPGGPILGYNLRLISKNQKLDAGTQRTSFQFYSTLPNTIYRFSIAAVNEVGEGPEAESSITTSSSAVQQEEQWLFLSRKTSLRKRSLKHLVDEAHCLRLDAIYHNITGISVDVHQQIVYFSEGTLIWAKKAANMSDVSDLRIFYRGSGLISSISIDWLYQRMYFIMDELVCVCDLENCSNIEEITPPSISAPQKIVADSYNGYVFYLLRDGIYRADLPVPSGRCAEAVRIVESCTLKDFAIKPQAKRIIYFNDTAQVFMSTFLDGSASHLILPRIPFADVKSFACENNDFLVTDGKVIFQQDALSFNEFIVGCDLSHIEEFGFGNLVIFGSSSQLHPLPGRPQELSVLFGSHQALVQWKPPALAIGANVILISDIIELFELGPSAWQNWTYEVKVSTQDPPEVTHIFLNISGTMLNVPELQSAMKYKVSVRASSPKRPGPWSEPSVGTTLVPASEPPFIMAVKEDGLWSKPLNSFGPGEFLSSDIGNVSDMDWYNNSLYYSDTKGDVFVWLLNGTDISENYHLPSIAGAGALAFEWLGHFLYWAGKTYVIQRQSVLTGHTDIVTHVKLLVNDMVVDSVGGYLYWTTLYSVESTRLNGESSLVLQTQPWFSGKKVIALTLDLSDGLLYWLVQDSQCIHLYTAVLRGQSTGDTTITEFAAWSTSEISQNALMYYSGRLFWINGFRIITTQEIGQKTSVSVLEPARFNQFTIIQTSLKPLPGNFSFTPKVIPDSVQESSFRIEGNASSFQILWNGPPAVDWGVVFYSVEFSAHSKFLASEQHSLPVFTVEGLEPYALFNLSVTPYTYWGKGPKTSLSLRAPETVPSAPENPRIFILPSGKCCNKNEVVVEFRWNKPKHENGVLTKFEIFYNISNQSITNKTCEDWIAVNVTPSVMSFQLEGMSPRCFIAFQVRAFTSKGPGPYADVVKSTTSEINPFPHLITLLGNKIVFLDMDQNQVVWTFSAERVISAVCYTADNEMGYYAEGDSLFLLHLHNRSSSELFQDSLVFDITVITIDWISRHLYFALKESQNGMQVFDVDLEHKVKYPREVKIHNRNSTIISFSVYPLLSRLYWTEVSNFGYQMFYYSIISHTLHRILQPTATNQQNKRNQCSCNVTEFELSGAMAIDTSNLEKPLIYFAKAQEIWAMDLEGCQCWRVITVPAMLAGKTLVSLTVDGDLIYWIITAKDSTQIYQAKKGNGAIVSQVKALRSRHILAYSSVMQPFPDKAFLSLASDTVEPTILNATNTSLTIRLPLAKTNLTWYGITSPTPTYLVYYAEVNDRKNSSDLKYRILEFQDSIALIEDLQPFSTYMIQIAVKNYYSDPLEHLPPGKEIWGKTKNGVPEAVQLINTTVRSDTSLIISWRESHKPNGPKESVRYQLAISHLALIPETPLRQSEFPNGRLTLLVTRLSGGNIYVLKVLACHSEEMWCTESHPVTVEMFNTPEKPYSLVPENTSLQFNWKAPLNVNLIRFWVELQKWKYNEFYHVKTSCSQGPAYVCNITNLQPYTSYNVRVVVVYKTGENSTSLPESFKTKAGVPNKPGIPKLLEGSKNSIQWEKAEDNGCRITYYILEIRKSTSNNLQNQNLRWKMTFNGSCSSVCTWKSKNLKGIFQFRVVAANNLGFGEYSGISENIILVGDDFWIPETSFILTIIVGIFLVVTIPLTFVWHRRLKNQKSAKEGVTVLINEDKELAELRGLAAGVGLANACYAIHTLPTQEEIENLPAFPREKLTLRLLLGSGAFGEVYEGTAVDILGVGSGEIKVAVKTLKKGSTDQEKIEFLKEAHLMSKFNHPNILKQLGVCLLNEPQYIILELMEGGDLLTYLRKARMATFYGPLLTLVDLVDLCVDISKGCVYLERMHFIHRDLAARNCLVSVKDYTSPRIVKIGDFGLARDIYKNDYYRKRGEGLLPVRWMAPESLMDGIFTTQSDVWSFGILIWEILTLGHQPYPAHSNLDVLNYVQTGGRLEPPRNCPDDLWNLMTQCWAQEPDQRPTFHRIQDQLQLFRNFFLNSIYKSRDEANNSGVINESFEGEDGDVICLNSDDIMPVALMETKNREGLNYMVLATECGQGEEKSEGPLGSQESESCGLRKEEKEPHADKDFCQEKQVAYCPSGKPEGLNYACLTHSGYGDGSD
Ba/F3 cells containing Ros1 with G2032R mutation, sequence (P08922 whole entry G2032R, form open): as the sequence (P08922 whole entry, stated change not applied) above, with G2032R counted along it

For `CC(C)c1ccc(COc2ccc(-c3c(-c4ccncc4)nn4c3C(=O)NCC4)cc2)cc1` [Compound 1], the EC50 in assay [1] was 126 nM. In addition, the “T/C (%)” value in assay [2] (6.25 mg/kg BID) was 94%; in assay [2] (12.5 mg/kg BID), 23%; in assay [2] (25 mg/kg QD), 42%; in assay [4] (6.25 mg/kg BID) it was 79%; in assay [4] (12.5 mg/kg BID), 43%; in assay [4] (25 mg/kg BID), 7%. The “T/C (%)” value in assay [7] (1.56 mg/kg QD) was determined as 88%; in assay [7] (3.125 mg/kg QD), 75%; in assay [7] (6.25 mg/kg BID) it was 50%; in assay [7] (6.25 mg/kg QD), 35%; in assay [7] (12.5 mg/kg BID), 20%; in assay [7] (12.5 mg/kg QD), 12%. The “T/C (%)” value in assay [7] (25 mg/kg BID) was −13%; in assay [7] (25 mg/kg QD) it was −27%. Further, the IC50 on Ros1 enzyme was 25.1 nM. In addition, in assay [3], the “Ba/3 Ros1 G2032R (-IL-3) pIC50” value worked out at 7.0. Also, the “BaF3-ROS1-IL3 pIC50” value in assay [5] was 7.6. Also, in assay [6], the “Ba/F3 Ros1 L2026M (-IL-3) pIC50” value is listed as 7.3.
As to `CC(C)c1ccc(COc2ccc(-c3c(-c4ccncc4)nn4c3C(=O)N(CCO)CC4)cc2)cc1` [Compound 2], in assay [1], the EC50 was 126 nM. The “T/C (%)” value in assay [2] (12.5 mg/kg BID) is given as 82%; in assay [2] (25 mg/kg BID), 50%; in assay [2] (50 mg/kg BID), 28%; in assay [2] (100 mg/kg BID), −32%; in assay [4] (12.5 mg/kg BID), 89%; in assay [4] (25 mg/kg BID) it was 55%. Moreover, the “T/C (%)” value in assay [4] (50 mg/kg BID) was 18%; in assay [4] (100 mg/kg BID), −16%; in assay [7] (3.125 mg/kg BID) it was 91%; in assay [7] (6.25 mg/kg BID) it was 67%; in assay [7] (12.5 mg/kg BID, 12.5 mg/kg) it was 47% and 51%; in assay [7] (12.5 mg/kg QD) it was 61%. Besides, the “T/C (%)” value is on record as 46% in assay [7] (25 mg/kg QD), 20% in assay [7] (50 mg/kg QD) and −22% in assay [7] (100 mg/kg BID). Further, at Ros1 enzyme, the IC50 was 20 nM. Further, the “Ba/3 Ros1 G2032R (-IL-3) pIC50” value in assay [3] is recorded as 7.1. The “BaF3-ROS1-IL3 pIC50” value in assay [5] stood at 7.6. The “Ba/F3 Ros1 L2026M (-IL-3) pIC50” value in assay [6] came out at 7.4.
